Consider one compound from EP3536368B1, “DRY POWDER INHALER COMPRISING A SEROTONIN RECEPTOR AGONIST AND A DIKETOPIPERAZINE FOR TREATING MIGRAINES” (MannKind Corporation, priority 2010, dated 2012).

Data set [1] relates to migraine model in anesthetized dogs. Put plainly: Pharmacodynamic study, capsaicin-induced carotid vasodilation migraine model. In kind it is in vivo, Beagle Dogs. The following applies: regardless of the route of administration.
The next data set can be described thus: in vivo. The note with it: female, Sprague Dawley, rat, iv.
The conditions of data set [2]: rat, in vivo.

Read-outs that look alike come from different tables or passages of the source.

With `CNS(=O)(=O)Cc1ccc2[nH]cc(CCN(C)C)c2c1` [Sumatriptan, sumatriptan], the “Blood pressure and heart rate” value in data set [1] is “unaltered”. The half-life in “in vivo” is 5.07 h. Besides, the tolerability entry in data set [2] is “well tolerated”. Besides, in data set [2] (iv), the AUC is recorded as 273,729 (min,ng/mL)mg and the Cmax was 26,719 ng/mL/mg. Further, in data set [2] (sc), the AUC was 99,583 (min,ng/mL)mg and the Cmax is reported as 2309 ng/mL/mg.

Broadly, the half-life is the time needed for the level to fall by half in the phase considered. A high value points to slow decline.
